In patent US4594348A, “Use of some 2-[2-[4-phenyl-1-piperazinyl]ethyl]-1H-naphth-[1,2-D]imidazole derivatives and their pharmaceutically acceptable salts in the treatment of cardiovascular diseases” (Gruppo Lepetit S.p.A., priority 1984, dated 1986):

Test system: conscious renal hypertensive dogs
Assay: Systolic blood pressure in conscious renal hypertensive dogs (oral, Goldblatt's method)
Format: in vivo, dog (mongrel)
Conditions: Table I, renal hypertensive dogs, oral
Description: The experiments herein described which use renal hypertensive dogs are conducted essentially as described in the above cited text.
More particularly, in the experiments with conscious renal hypertensive dogs, mongrel dogs with two clips on the renal arteries were used according to the Goldblatt's method. The compounds were administered by oral route as powder in gelatine capsules. Systolic blood pressure (SBP) was registered at the tail (indirect method).
^a S.B.P. = Systolic blood pressure. It is determined after oral
administration where three animals were employed for each dose. It is
expressed in mmHg as mean value ± SE.
^b % Δ = % variation of the S.B.P. over the basal value (time
0) at the indicated time after administration.

| Compound | % systolic pressure variation (2 mg/kg) [%] | % systolic pressure variation (5 mg/kg) [%] | % systolic pressure variation (20 mg/kg) [%] | % systolic pressure variation (10 mg/kg) [%] |
| --- | --- | --- | --- | --- |
| CC(C)n1c(CCN2CCN(c3ccc(Cl)cc3)CC2)nc2ccc3ccccc3c21 [Compound 7, 2-[2-[4-(4-chlorophenyl)-1-piperazinyl]ethyl]-1-(1-methylethyl)-1H-naphth[1,2-d]imidazole] | -14 | -35 |  |  |
| COc1cccc(N2CCN(CCc3nc4ccc5ccccc5c4n3C(C)C)CC2)c1 [Compound 5, 2-[2-[4-(3-methoxyphenyl)-1-piperazinyl]ethyl]-1-(1-methylethyl)-1H-naphth[1,2-d]imidazole] |  |  | -20 |  |
| Cn1c(CCN2CCN(c3ccc(Cl)cc3)CC2)nc2ccc3ccccc3c21 [Compound 4, 2-[2-[4-(4-chlorophenyl)-1-piperazinyl]ethyl]-1-methyl-1H-naphth[1,2-d]imidazole] |  |  | -31 | -29 |
